Source: the NIST ThermoML archive (doi:10.1021/je0501890)

Test: xn = mol fraction of the nth substance listed
Conditions: 101.33 kPa, Liquid

ClC(Cl)C(Cl)Cl [1,1,2,2-tetrachloroethane] + CCCCCCCO
Conditions	mass density, 293.15 K [kg/m3]	mass density, 298.15 K [kg/m3]	mass density, 303.15 K [kg/m3]	viscosity, 293.15 K [mPa·s]	viscosity, 298.15 K [mPa·s]	viscosity, 303.15 K [mPa·s]
x2 = 0.0506	1541.06	1533.58	1526.03	–	–	–
x2 = 0.0997	–	–	–	1.852	1.69	1.547
x2 = 0.1031	1488.84	1481.6	1474.35	–	–	–
x2 = 0.1519	1442.21	1435.22	1428.22	–	–	–
x2 = 0.2003	1397.58	1390.83	1384.07	–	–	–
x2 = 0.2073	–	–	–	2.091	1.907	1.71
x2 = 0.2515	1351.89	1345.42	1338.9	–	–	–
x2 = 0.2998	1310.19	1303.92	1297.68	–	–	–
x2 = 0.3054	–	–	–	2.417	2.187	1.927
x2 = 0.3445	–	–	–	2.558	2.272	2.027
x2 = 0.3499	1268.42	1262.39	1256.35	–	–	–
x2 = 0.4085	–	–	–	2.833	2.506	2.225
x2 = 0.4109	1219.27	1213.55	1207.77	–	–	–
x2 = 0.4464	1191.47	1185.87	1180.31	–	–	–
x2 = 0.5042	–	–	–	3.341	2.908	2.555
x2 = 0.5113	1142.28	1136.96	1131.65	–	–	–
x2 = 0.5438	–	–	–	3.564	3.101	2.715
x2 = 0.5524	1112.04	1106.9	1101.73	–	–	–
x2 = 0.5988	–	–	–	3.924	3.392	2.962
x2 = 0.6013	1077.03	1072.05	1067.13	–	–	–
x2 = 0.6506	1042.68	1037.91	1033.17	–	–	–
x2 = 0.6937	–	–	–	4.654	3.992	3.429
x2 = 0.6959	1011.91	1007.34	1002.73	–	–	–
x2 = 0.7507	975.7	971.35	966.91	–	–	–
x2 = 0.753	–	–	–	5.166	4.389	3.763
x2 = 0.8001	943.88	939.68	935.48	–	–	–
x2 = 0.8007	–	–	–	5.595	4.737	4.035
x2 = 0.8505	912.27	908.25	904.23	–	–	–
x2 = 0.8971	–	–	–	6.506	5.365	4.627
x2 = 0.8979	883.17	879.34	875.45	–	–	–
x2 = 0.9513	851.1	847.45	843.75	–	–	–

CCCCCCCO [heptan-1-ol] + ClCCCl
Conditions	mass density, 293.15 K [kg/m3]	mass density, 298.15 K [kg/m3]	mass density, 303.15 K [kg/m3]	viscosity, 293.15 K [mPa·s]	viscosity, 298.15 K [mPa·s]	viscosity, 303.15 K [mPa·s]
x1 = 0.0502	1213.23	1206.24	1199.3	–	–	–
x1 = 0.1023	–	–	–	0.922	0.851	0.796
x1 = 0.1024	1175.9	1169.21	1162.55	–	–	–
x1 = 0.1493	1145.01	1138.62	1132.15	–	–	–
x1 = 0.2009	–	–	–	1.104	1.006	0.928
x1 = 0.2511	1085.65	1079.74	1073.87	–	–	–
x1 = 0.2957	–	–	–	1.342	1.215	1.105
x1 = 0.3445	1038.38	1032.88	1027.38	–	–	–
x1 = 0.3465	–	–	–	1.501	1.353	1.227
x1 = 0.3896	1017.38	1012.13	1006.83	–	–	–
x1 = 0.4198	1004.18	999.04	993.91	–	–	–
x1 = 0.455	989.42	984.4	979.35	–	–	–
x1 = 0.4616	–	–	–	1.939	1.732	1.546
x1 = 0.5017	970.85	966	961.14	–	–	–
x1 = 0.5035	–	–	–	2.139	1.901	1.699
x1 = 0.5437	–	–	–	2.355	2.079	1.844
x1 = 0.551	952.41	947.76	943.04	–	–	–
x1 = 0.5998	–	–	–	2.703	2.367	2.089
x1 = 0.6036	933.66	929.17	924.63	–	–	–
x1 = 0.6481	918.87	914.5	910.13	–	–	–
x1 = 0.6602	914.96	910.61	906.29	–	–	–
x1 = 0.6956	903.77	899.55	895.28	–	–	–
x1 = 0.6972	–	–	–	3.412	2.955	2.583
x1 = 0.7475	–	–	–	3.887	3.354	2.905
x1 = 0.748	887.98	883.88	879.79	–	–	–
x1 = 0.7974	873.84	869.91	865.91	–	–	–
x1 = 0.7978	–	–	–	4.397	3.773	3.253
x1 = 0.8548	858.28	854.47	850.61	–	–	–
x1 = 0.8862	–	–	–	5.474	4.65	3.979
x1 = 0.8898	849.21	845.44	841.7	–	–	–
x1 = 0.9489	834.67	831.05	827.43	–	–	–

ClC(Cl)=C(Cl)Cl [tetrachloroethene] + CCCCCCCO
Conditions	mass density, 293.15 K [kg/m3]	mass density, 298.15 K [kg/m3]	mass density, 303.15 K [kg/m3]	viscosity, 293.15 K [mPa·s]	viscosity, 298.15 K [mPa·s]	viscosity, 303.15 K [mPa·s]
x2 = 0.0564	1560.55	1552.56	1544.51	–	–	–
x2 = 0.098	1516.9	1509.2	1501.4	–	–	–
x2 = 0.1052	–	–	–	1.064	0.993	0.961
x2 = 0.152	1462.26	1454.91	1447.45	–	–	–
x2 = 0.2	–	–	–	1.285	1.186	1.116
x2 = 0.2001	1415.53	1408.42	1401.24	–	–	–
x2 = 0.248	1370.53	1363.81	1356.93	–	–	–
x2 = 0.2939	–	–	–	1.569	1.441	1.321
x2 = 0.2944	1328.47	1321.91	1315.32	–	–	–
x2 = 0.3527	1277.56	1271.32	1265.06	–	–	–
x2 = 0.3983	1239.09	1233.07	1227.04	–	–	–
x2 = 0.4073	–	–	–	2.024	1.83	1.661
x2 = 0.4484	1198.21	1192.43	1186.64	–	–	–
x2 = 0.4612	–	–	–	2.292	2.05	1.851
x2 = 0.4982	–	–	–	2.509	2.231	2.002
x2 = 0.5051	1153.53	1148.07	1142.54	–	–	–
x2 = 0.5477	1121.03	1115.76	1110.45	–	–	–
x2 = 0.55	–	–	–	2.827	2.501	2.222
x2 = 0.5992	–	–	–	3.169	2.798	2.462
x2 = 0.6002	1082.09	1077.06	1071.96	–	–	–
x2 = 0.6503	1046.14	1041.3	1036.45	–	–	–
x2 = 0.6926	–	–	–	3.922	3.397	2.958
x2 = 0.7419	983.09	978.66	974.19	–	–	–
x2 = 0.8016	943.84	939.63	935.38	–	–	–
x2 = 0.8034	–	–	–	4.966	4.249	3.631
x2 = 0.8533	910.96	906.93	902.87	–	–	–
x2 = 0.8578	–	–	–	5.52	4.704	4.03
x2 = 0.8961	–	–	–	5.942	5.052	4.324
x2 = 0.8963	884.26	880.43	876.54	–	–	–
x2 = 0.9453	854.68	851.01	847.3	–	–	–

ClC=C(Cl)Cl [trichloroethene] + CCCCCCCO
Conditions	mass density, 293.15 K [kg/m3]	mass density, 298.15 K [kg/m3]	mass density, 303.15 K [kg/m3]	viscosity, 293.15 K [mPa·s]	viscosity, 298.15 K [mPa·s]	viscosity, 303.15 K [mPa·s]
x2 = 0.0507	1412.78	1404.82	1396.73	–	–	–
x2 = 0.0927	–	–	–	0.671	0.635	0.6
x2 = 0.0992	1367.53	1359.9	1352.18	–	–	–
x2 = 0.1569	1317.05	1309.82	1302.52	–	–	–
x2 = 0.201	–	–	–	0.883	0.826	0.763
x2 = 0.2026	1279.18	1272.23	1265.25	–	–	–
x2 = 0.2558	1237.46	1230.87	1224.15	–	–	–
x2 = 0.256	–	–	–	1.017	0.949	0.875
x2 = 0.304	–	–	–	1.158	1.073	0.989
x2 = 0.3109	1196.47	1190.18	1183.85	–	–	–
x2 = 0.3618	1160.63	1154.67	1148.63	–	–	–
x2 = 0.3997	1134.97	1129.21	1123.37	–	–	–
x2 = 0.4057	–	–	–	1.535	1.397	1.28
x2 = 0.43	1115.18	1109.55	1103.85	–	–	–
x2 = 0.5098	–	–	–	2.05	1.838	1.662
x2 = 0.51	1065.33	1060.09	1054.79	–	–	–
x2 = 0.5508	–	–	–	2.307	2.046	1.839
x2 = 0.5514	1040.91	1035.82	1030.7	–	–	–
x2 = 0.6022	–	–	–	2.648	2.342	2.082
x2 = 0.6149	1005.06	1000.28	995.43	–	–	–
x2 = 0.6574	982.15	977.54	972.87	–	–	–
x2 = 0.7071	956.39	951.95	947.47	–	–	–
x2 = 0.7077	–	–	–	3.52	3.065	2.672
x2 = 0.7571	931.38	927.1	922.8	–	–	–
x2 = 0.8016	909.97	905.84	901.69	–	–	–
x2 = 0.802	–	–	–	4.51	3.865	3.333
x2 = 0.8699	–	–	–	5.313	4.537	3.89
x2 = 0.8728	877.14	873.27	869.35	–	–	–
x2 = 0.893	–	–	–	5.624	4.804	4.112
x2 = 0.9405	847.47	843.79	840.09	–	–	–

CC(Cl)(Cl)Cl [1,1,1-trichloroethane] + CCCCCCCO
Conditions	mass density, 293.15 K [kg/m3]	mass density, 298.15 K [kg/m3]	mass density, 303.15 K [kg/m3]	viscosity, 293.15 K [mPa·s]	viscosity, 298.15 K [mPa·s]	viscosity, 303.15 K [mPa·s]
x2 = 0.103	1252.2	1244.75	1237.24	–	–	–
x2 = 0.1048	–	–	–	0.996	0.914	0.858
x2 = 0.1615	1214.95	1207.9	1200.8	–	–	–
x2 = 0.2027	–	–	–	1.224	1.11	1.014
x2 = 0.2047	1188.54	1181.77	1174.93	–	–	–
x2 = 0.2545	1159.2	1152.74	1146.2	–	–	–
x2 = 0.3034	–	–	–	1.529	1.379	1.245
x2 = 0.309	1128.37	1122.23	1116.01	–	–	–
x2 = 0.3514	1105.21	1099.32	1093.32	–	–	–
x2 = 0.3542	–	–	–	1.714	1.539	1.388
x2 = 0.398	–	–	–	1.895	1.699	1.526
x2 = 0.4022	1078.45	1072.77	1067.06	–	–	–
x2 = 0.5016	1028.73	1023.53	1018.27	–	–	–
x2 = 0.503	–	–	–	2.426	2.14	1.907
x2 = 0.5509	1005.32	1000.35	995.29	–	–	–
x2 = 0.5533	–	–	–	2.729	2.393	2.127
x2 = 0.58	991.84	986.98	982.04	–	–	–
x2 = 0.5993	–	–	–	3.043	2.664	2.353
x2 = 0.6573	957.28	952.71	948.09	–	–	–
x2 = 0.6724	950.85	946.34	941.77	–	–	–
x2 = 0.6811	–	–	–	3.69	3.196	2.791
x2 = 0.7416	–	–	–	4.217	3.629	3.141
x2 = 0.7421	921.42	917.17	912.86	–	–	–
x2 = 0.7937	900.46	896.37	892.23	–	–	–
x2 = 0.7956	–	–	–	4.783	4.09	3.495
x2 = 0.8459	879.86	875.95	871.97	–	–	–
x2 = 0.9003	–	–	–	5.912	5.018	4.297
x2 = 0.9027	858.15	854.41	850.61	–	–	–
